From US7759350B2, “Pyrimidine carboxamides” (Orchid Research Laboratories Ltd., priority 2005, dated 2010)

Columns and labels:
TNF-α [1] = assay: LPS induced sepsis for measurement of TNF-α inhibition in mice; type: in vivo; details: 50 mg/kg bw oral; female Swiss albino mice; serum 90 minutes after LPS
Protocol: LPS Induced Sepsis for Measurement of TNF-α Inhibition in Mice
The LPS induced sepsis model in mice was performed as described by Les sekut et al (J Lab Clin Med 1994; 124:813-20). Female Swiss albino mice were selected with their body weights being equivalent within each group. The mice were fasted for 20 hours with free access to water. The mice were dosed orally with the test compound suspended in vehicle containing 0.5% Tween 80 in 0.25% Carboxy-methylcellulose sodium salt. The control mice were administered the vehicle alone. After 30 minutes of oral dosing, the mice were injected with 500 μg of Lipopolysaccharide (Escherichia coli, LPS: B4 from Sigma) in phosphate buffer saline solution into the intraperitoneal cavity of the mice. After 90 minutes of LPS administration, the mice were bled via retro-orbital sinus puncture. Blood samples were stored overnight at 4° C. Serum samples were collected by centrifuging the samples at 4000 rpm for 15 minutes at 4° C. Immediately the serum samples were analysed for TNF-α levels, using commercially available mouse TNF-α ELISA kit (Amersham Biosciences) and assay was performed by the manufacturer instruction.

TNF-α [2] = assay: In vitro measurement of TNF-α in human PBMC; type: cell-based; details: at 1 μM, LPS
Protocol: In Vitro Measurement of Tumor Necrosis Factor Alpha (TNF-α)
This assay determines the effect of test compounds on the production of TNF-α in human Peripheral Blood Mononuclear Cells (PBMC). Compounds were tested for their ability to inhibit the activity of TNF-α in human PBMC. PBMC were isolated from blood (from healthy volunteers) using BD Vacutainer CPT™ (Cell preparation tube, BD Bio Science) and suspended in RPMI medium (Physiol. Res. 52; 593-598, 2003). The test compounds were pre-incubated with PBMC (0.5 million/incubation well) for 15 minutes at 37° C. and then stimulated with Lipopolysaccharide (Escherichia coli: B4; 1 μg/ml) for 18 hours at 37° C. in 5% CO2. The levels of TNF-α in the cell culture medium were estimated using enzyme linked Immunosorbent assay performed in a 96 well format as per the procedure of the manufacturer (R&D Systems, Inc. 614 McKinley Place Nebr., Minneapolis, Minn. 55413, USA).

IL-1β = assay: In vitro measurement of IL-1β in human PBMC; type: cell-based; details: Conc. 0.1 μM, LPS
How it was run: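 Human PBMC (0.5 million/well) preincubated with compound 15 min at 37° C., then stimulated with E. coli LPS (1 μg/ml) for 18 h at 37° C. Cytokine in culture medium quantified by ELISA.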

[3] = molecular target: T1, purified recombinant COX-2 enzyme (Homo sapiens, UniProt P35354); assay: COX-2 enzyme based assay; type: biochemical; details: Conc. 10 μM
T1 sequence (P35354 18-604): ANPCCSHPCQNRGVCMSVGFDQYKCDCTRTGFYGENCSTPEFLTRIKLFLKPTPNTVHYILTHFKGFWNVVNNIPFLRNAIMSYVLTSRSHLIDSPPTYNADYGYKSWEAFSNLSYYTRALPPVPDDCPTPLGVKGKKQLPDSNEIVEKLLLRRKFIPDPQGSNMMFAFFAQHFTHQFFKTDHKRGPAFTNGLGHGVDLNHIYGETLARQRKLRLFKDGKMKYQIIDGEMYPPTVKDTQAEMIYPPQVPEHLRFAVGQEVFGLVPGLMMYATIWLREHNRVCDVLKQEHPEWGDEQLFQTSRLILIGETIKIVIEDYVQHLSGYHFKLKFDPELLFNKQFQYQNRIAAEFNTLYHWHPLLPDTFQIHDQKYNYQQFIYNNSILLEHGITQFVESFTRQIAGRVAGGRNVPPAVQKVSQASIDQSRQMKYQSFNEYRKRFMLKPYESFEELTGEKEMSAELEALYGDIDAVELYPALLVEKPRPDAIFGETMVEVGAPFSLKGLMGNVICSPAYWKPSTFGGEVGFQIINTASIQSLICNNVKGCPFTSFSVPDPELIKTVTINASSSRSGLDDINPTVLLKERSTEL
Protocol: COX-1 and COX-2 Enzyme Based Assay
COX-2 enzyme based assays were carried out to check the inhibitory potential of test compounds on the production of prostaglandin by purified recombinant COX-1/COX-2 enzyme (Proc. Nat. Acad. Sci. USA, 88, 2692-2696, 1991; Clin. Immunoassay 15, 116-120, 1992) In this assay, the potential of the test compound to inhibit the production of prostaglandin either by COX-1 or COX-2 from arachidonic acid (substrate) was measured. This was an enzyme based in-vitro assay to evaluate selective COX inhibition with good reproducibility.
Arachidonic acid was converted to PGH2 (Intermediate product) by COX1/COX-2 in presence or absence of the test compound. The reaction was carried out at 37° C. and after 2 minutes it was stopped by adding 1M HCl. Intermediate products PGH2 was converted to a stable Prostanoid product PGF2α by SnCl2 reduction. The amount of PGF2α produced in the reaction was inversely proportional to the COX inhibitory potential of the test compound. The prostanoid product was quantified via enzyme immunoassay (EIA) using a broadly specific antibody that binds to all the major forms of Prostaglandin, using Cayman ELISA kit as per the procedure outlined by the manufacturer Cayman Chemicals, Ann Arbor, USA).

inhibition at 10 µM [3]: 11.4%
SMILES: CNc1nc(-c2ccncc2)nc(SC)c1C(=O)Nc1ccc(OC)cc1 [Example 14, N-(4-Methoxyphenyl)-4-(methylamino)-6-(methylthio)-2-pyridin-4-ylpyrimidine-5-carboxamide]
TNF-α Inhibition (%) at 50 mg/kg bw (TNF-α [1]): 18.74% | inhibition at 1 µM (TNF-α [2]): 36.8% | IL-1β Inhibition (%) (IL-1β): Not active
